The values that follow come from BindingDB's records for doi:10.1016/S0960-894X(97)00368-5 (1997).

The target of this experiment is Human cytomegalovirus protease (assemblin). Put plainly: Inhibitory concentration against human cytomegalovirus protease variant expressing a beta galactosidase reporter gene. (A reporter such as luciferase makes a cellular process visible.)
As usually defined, the IC50 is the concentration at which inhibition is half-maximal. Low values mean greater potency in that assay, high ones weaker potency in that assay. On to `Cc1c(NC(=O)CN(C)C)ccc2nc(N[C@H](C)c3ccccc3)oc(=O)c12` [2-Dimethylamino-N-[5-methyl-4-oxo-2-(1-phenyl-ethylamino)-4H-benzo[d][1,3]oxazin-6-yl]-acetamide], for which half-maximal inhibition (IC50) required 2.2 µM.

The compound `Cc1cccc2nc(NC(C)C)oc(=O)c12` [2-Isopropylamino-5-methyl-benzo[d][1,3]oxazin-4-one] gave an IC50 of 4 µM.

The compound `Cc1cccc2nc(N[C@H](C)c3ccc(Br)cc3)oc(=O)c12` [2-[1-(4-Bromo-phenyl)-ethylamino]-5-methyl-benzo[d][1,3]oxazin-4-one] displayed a half-inhibitory concentration (IC50) of 0.46 µM.

On to `Cc1c(NC(=O)c2ccccn2)ccc2nc(N[C@H](C)c3ccccc3)oc(=O)c12` [Pyridine-2-carboxylic acid [5-methyl-4-oxo-2-(1-phenyl-ethylamino)-4H-benzo[d][1,3]oxazin-6-yl]-amide], for which the 50% inhibitory concentration (IC50) was 0.72 µM.

Compound `Cc1c(NC(=O)OC(C)(C)C)ccc2nc(N[C@H](C)c3ccccc3)oc(=O)c12` [[5-Methyl-4-oxo-2-(1-phenyl-ethylamino)-4H-benzo[d][1,3]oxazin-6-yl]-carbamic acid tert-butyl ester] gave an IC50 of 1.3 µM.
